The conditions of data set [1]: disulfide bond, 20-membered ring, I2/AcOH, ACN/H2O.
Another data set deals with T1, IL-23R (Homo sapiens, UniProt Q5VWK5).
T1 construct: HEK293 cells containing IL-23R, IL-12RP31 and a firefly luciferase reporter gene driven by a STAT-inducible promoter (Promega); host or cells: HEK293
T1 sequence (Q5VWK5 24-629): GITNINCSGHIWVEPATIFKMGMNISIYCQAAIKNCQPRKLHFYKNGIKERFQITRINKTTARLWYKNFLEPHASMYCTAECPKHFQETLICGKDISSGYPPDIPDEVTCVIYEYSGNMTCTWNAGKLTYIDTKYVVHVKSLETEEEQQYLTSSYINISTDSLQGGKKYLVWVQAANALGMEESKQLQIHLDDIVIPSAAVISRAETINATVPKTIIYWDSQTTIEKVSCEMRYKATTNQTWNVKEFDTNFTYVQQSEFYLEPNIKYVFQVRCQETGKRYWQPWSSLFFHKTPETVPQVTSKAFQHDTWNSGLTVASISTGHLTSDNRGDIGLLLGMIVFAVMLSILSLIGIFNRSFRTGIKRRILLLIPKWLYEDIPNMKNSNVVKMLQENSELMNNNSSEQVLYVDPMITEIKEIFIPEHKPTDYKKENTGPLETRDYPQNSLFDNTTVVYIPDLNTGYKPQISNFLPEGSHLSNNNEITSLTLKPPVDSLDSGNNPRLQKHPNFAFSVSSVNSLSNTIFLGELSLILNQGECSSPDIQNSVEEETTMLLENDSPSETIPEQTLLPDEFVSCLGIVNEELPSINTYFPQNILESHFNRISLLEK
Kind of data set: IL23R Reporter Assay. Format: cell-based. Summed up:
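Luminescence from BioGlo, read after cells were moved to 20 °C, followed a 5 h incubation at 37 °C, 5% CO2 with DMSO-diluted test compounds.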

Eleven molecules from patent publication US12478617B2, “Lipidated peptide inhibitors of interleukin-23 receptor” (JANSSEN BIOTECH, INC., priority 2021, dated 2025) can be followed below.

Like-named read-outs stand apart in the source and are kept apart here. Starred links: 1 amine or outer side, 2 acyl side, 3 side chain; linkers in the order of their positions; H or OH if unused. Positions of bridges follow the written chain, without caps; N, C: chain ends. Non-standard residues stand in square brackets, D forms with d. Residues, ends and D or L forms follow the SMILES beside them. Groups on a side chain read outwards from the residue. *: point of attachment. X2 = C[N+](C)(CCNC(=O)COCCOCCNC(=O)COCCOCCNC(=O)CC[C@H](NC(=O)CCCCCCCCCCCCCCCCC(=O)O)C(=O)O)CC(=O)*; X5 = O=C(O)CCCCCCCCCCCCCCCCC(=O)N[C@@H](CCN*)C(=O)O; Trp(7-Me) = Cc1cccc2c(C[C@H](N)C(=O)O)c[nH]c12; C20 diacid = O=C(O)CCCCCCCCCCCCCCCCCCC(=O)*; γGlu = O=C(O)[C@H](CCC(=O)[*:2])N[*:1]; 2Nal = N[C@@H](Cc1ccc2ccccc2c1)C(=O)O; AEF = NCCOc1ccc(C[C@H](N)C(=O)O)cc1; Trx = NC[C@H]1CC[C@H](C(=O)O)CC1; 3Pal = N[C@@H](Cc1cccnc1)C(=O)O; Pen = CC(C)(S)[C@H](N)C(=O)O; Thp = NC1(C(=O)O)CCOCC1; AEEA = NCCOCCOCC(=O)O; Sar = CNCC(=O)O

Turning to `CC(=O)NCCCC[C@@H]1NC(=O)[C@H](Cc2c[nH]c3c(C)cccc23)NC(=O)[C@H]([C@@H](C)O)NC(=O)[C@H](CC(N)=O)NC(=O)[C@@H](NC(=O)[C@@H](CCCCNC(=O)COCCOCCNC(=O)COCCOCCNC(=O)C[N+](C)(C)CCNC(=O)CC[C@H](NC(=O)CCCCCCCCCCCCCCCCC(=O)O)C(=O)O)NC(C)=O)C(C)(C)SSC(C)(C)[C@@H](C(=O)N[C@@H](Cc2ccc(OCCN)cc2)C(=O)N[C@@H](Cc2ccc3ccccc3c2)C(=O)NC2(C(=O)N[C@@H](CCCCNC(C)=O)C(=O)N[C@@H](CC(N)=O)C(=O)N[C@@H](Cc3cccnc3)C(=O)N(C)CC(N)=O)CCOCC2)NC1=O`, the ring closure, yield after HPLC in data set [1] (from Ac-dLys(PEG2PEG2SP6gEC18OH)-Pen-Asn-Thr-7MeTrp-Lys(Ac)-Pen-AEF-2Nal-THP-Lys(Ac)-Asn-3Pya-Sar-NH2, 0.343 mM) worked out at 35%.

In data set [1] (from Ac-dArg-Pen-Asn-Thr-Trp(7-Me)-Lys(Ac)-Pen-AEF-2Nal-THP-Glu-Asn-3Pya-Sar-Lys(PEG2PEG2gEC18OH)-NH2, 0.345 mM), `CC(=O)NCCCC[C@@H]1NC(=O)[C@H](Cc2c[nH]c3c(C)cccc23)NC(=O)[C@H]([C@@H](C)O)NC(=O)[C@H](CC(N)=O)NC(=O)[C@@H](NC(=O)[C@@H](CCCNC(=N)N)NC(C)=O)C(C)(C)SSC(C)(C)[C@@H](C(=O)N[C@@H](Cc2ccc(OCCN)cc2)C(=O)N[C@@H](Cc2ccc3ccccc3c2)C(=O)NC2(C(=O)N[C@@H](CCC(=O)O)C(=O)N[C@@H](CC(N)=O)C(=O)N[C@@H](Cc3cccnc3)C(=O)N(C)CC(=O)N[C@@H](CCCCNC(=O)COCCOCCNC(=O)COCCOCCNC(=O)CC[C@H](NC(=O)CCCCCCCCCCCCCCCCC(=O)O)C(=O)O)C(N)=O)CCOCC2)NC1=O` showed a ring closure, yield after HPLC of 5%.

`CC(=O)NCCCC[C@@H]1NC(=O)[C@H](Cc2c[nH]c3c(C)cccc23)NC(=O)[C@H]([C@@H](C)O)NC(=O)[C@H](CC(N)=O)NC(=O)[C@@H](NC(=O)[C@@H](CCCNC(=N)N)NC(C)=O)C(C)(C)SSC(C)(C)[C@@H](C(=O)N[C@@H](Cc2ccc(OCCN)cc2)C(=O)N[C@@H](Cc2ccc3ccccc3c2)C(=O)NC2(C(=O)N[C@@H](CCC(=O)O)C(=O)N[C@@H](CC(N)=O)C(=O)N[C@@H](Cc3cccnc3)C(=O)N(C)[C@@H](CCCCNC(=O)COCCOCCNC(=O)COCCOCCNC(=O)CC[C@H](NC(=O)CCCCCCCCCCCCCCCCC(=O)O)C(=O)O)C(N)=O)CCOCC2)NC1=O`: in data set [1] (from Ac-dArg-Pen-Asn-Thr-7MeTrp-Lys(Ac)-Pen-AEF-2Nal-THP-Glu-Asn-3Pya-MeLys(PEG2PEG2gEC18OH)-NH2, […]), the ring closure, yield after HPLC was 11%.

`CC(=O)NCCCC[C@@H]1NC(=O)[C@H](Cc2c[nH]c3c(C)cccc23)NC(=O)[C@H]([C@@H](C)O)NC(=O)[C@H](CC(N)=O)NC(=O)[C@@H](NC(=O)[C@@H](CCCNC(=N)N)NC(C)=O)C(C)(C)SSC(C)(C)[C@@H](C(=O)N[C@@H](Cc2ccc(OCCN)cc2)C(=O)N[C@@H](Cc2ccc3ccccc3c2)C(=O)NC2(C(=O)N[C@@H](CCCCNC(C)=O)C(=O)N[C@@H](CC(N)=O)C(=O)N[C@@H](Cc3cccnc3)C(=O)N(CCOCCOCCNC(=O)COCCOCCNC(=O)CC[C@H](NC(=O)CCCCCCCCCCCCCCCCC(=O)O)C(=O)O)CC(N)=O)CCOCC2)NC1=O` registered a ring closure, yield after HPLC in data set [1] (from Ac-dArg-Pen-Asn-Thr-7MeTrp-Lys(Ac)-Pen-AEF-2Nal-THP-Lys(Ac)-Asn-3Pya-N(PEG2PEG2gEC18OH)Gly-NH2, […]) of 19.6%.

Regarding `CC(=O)NCCCC[C@@H]1NC(=O)[C@H](Cc2c[nH]c3c(C)cccc23)NC(=O)[C@H]([C@@H](C)O)NC(=O)[C@H](CC(N)=O)NC(=O)[C@@H](NC(=O)[C@@H](CCCNC(=N)N)NC(C)=O)C(C)(C)SSC(C)(C)[C@@H](C(=O)N[C@@H](Cc2ccc(OCCNC(=O)COCCOCCNC(=O)COCCOCCNC(=O)CC[C@H](NC(=O)CCCCCCCCCCCCCCCCC(=O)O)C(=O)O)cc2)C(=O)N[C@@H](Cc2ccc3ccccc3c2)C(=O)NC2(C(=O)N[C@@H](CCCCNC(C)=O)C(=O)N[C@@H](CC(N)=O)C(=O)N[C@@H](Cc3cccnc3)C(=O)N(C)CC(N)=O)CCOCC2)NC1=O`, in data set [1] (from Ac-dArg-Pen-Asn-Thr-7MeTrp-Lys(Ac)-Pen-AEF(PEG2PEG2gEC18OH)-2Nal-THP-Lys(Ac)-Asn-3Pya-Sar-NH2, 0.355 mM), the ring closure, yield after HPLC amounted to 10%.

`CC(=O)NCCCC[C@@H]1NC(=O)[C@H](Cc2c[nH]c3c(C)cccc23)NC(=O)[C@H]([C@@H](C)O)NC(=O)[C@H](CC(N)=O)NC(=O)[C@@H](NC(C)=O)C(C)(C)SSC(C)(C)[C@@H](C(=O)N[C@@H](Cc2ccc(OCCN)cc2)C(=O)N[C@@H](Cc2ccc3ccccc3c2)C(=O)NC2(C(=O)N[C@@H](CCCCNC(=O)COCCOCCNC(=O)COCCOCCNC(=O)CC[C@H](NC(=O)CCCCCCCCCCCCCCCCC(=O)O)C(=O)O)C(=O)N[C@@H](CC(N)=O)C(=O)N[C@@H](Cc3cccnc3)C(=O)N(C)CC(N)=O)CCOCC2)NC1=O` registered a ring closure, yield after HPLC in data set [1] (from Ac-Pen-Asn-Thr-7MeTrp-Lys(Ac)-Pen-AEF-2Nal-THP-Lys(PEG2PEG2gEC18OH)-Asn-3Pya-Sar-NH2, 0.382 mM) of 24%.

Consider `CC(=O)NCCCC[C@@H]1NC(=O)[C@H](Cc2c[nH]c3c(C)cccc23)NC(=O)[C@H]([C@@H](C)O)NC(=O)[C@H](CC(N)=O)NC(=O)[C@@H](NC(C)=O)C(C)(C)SSC(C)(C)[C@@H](C(=O)N[C@@H](Cc2ccc(OCCN)cc2)C(=O)N[C@@H](Cc2ccc3ccccc3c2)C(=O)NC2(C(=O)N[C@@H](CCCCNC(=O)C[N+](C)(C)CCNC(=O)COCCOCCNC(=O)COCCOCCNC(=O)CC[C@H](NC(=O)CCCCCCCCCCCCCCCCC(=O)O)C(=O)O)C(=O)N[C@@H](CC(N)=O)C(=O)N[C@@H](Cc3cccnc3)C(=O)N(C)CC(N)=O)CCOCC2)NC1=O` [Example 124, MeCO-Pen*-N-T-7MeW-K(Ac)-Pen*-AEF-2Nal-THP-K(SP6 PEG2PEG2gE C18OH)-N-3Pya-Sar-CONH2] (Ac-[Pen]NT[Trp(7-Me)]K(Ac)[Pen][AEF][2Nal][Thp]K(X2)N[3Pal][Sar]-NH2; disulfide 1-6), for which, on IL-23R, half-maximal inhibition (IC50) required 0.083 nM.

In turn, `CC(=O)NCCCC[C@@H]1NC(=O)[C@H](Cc2c[nH]c3c(C)cccc23)NC(=O)[C@H]([C@@H](C)O)NC(=O)[C@H](CC(N)=O)NC(=O)[C@@H](NC(C)=O)C(C)(C)SSC(C)(C)[C@@H](C(=O)N[C@@H](Cc2ccc(OCCN)cc2)C(=O)N[C@@H](Cc2ccc3ccccc3c2)C(=O)NC2(C(=O)N[C@@H](CCCCNC(=O)COCCOCCNC(=O)COCCOCCNC(=O)CC[C@H](NC(=O)[C@H]3CC[C@H](CNC(=O)CCCCCCCCCCCCCCCCCCC(=O)O)CC3)C(=O)O)C(=O)N[C@@H](CC(N)=O)C(=O)N[C@@H](Cc3cccnc3)C(=O)N(C)CC(N)=O)CCOCC2)NC1=O` [Example 128, MeCO-Pen*-N-T-7MeW-K(Ac)-Pen*-AEF-2Nal-THP-K(PEG2PEG2gETrxC20OH)-N-3Pya-Sar-CONH2] (Ac-[Pen]NT[Trp(7-Me)]K(Ac)[Pen][AEF][2Nal][Thp]K([AEEA-AEEA-γGlu-Trx-C20 diacid])N[3Pal][Sar]-NH2; disulfide 1-6) had an IC50 against IL-23R of 0.1 nM.

In turn, `CC(=O)NCCCC[C@@H]1NC(=O)[C@H](Cc2c[nH]c3c(C)cccc23)NC(=O)[C@H]([C@@H](C)O)NC(=O)[C@H](CC(N)=O)NC(=O)[C@@H](NC(=O)[C@@H](CCCNC(=N)N)NC(C)=O)C(C)(C)SSC(C)(C)[C@@H](C(=O)N[C@@H](Cc2ccc(OCCN)cc2)C(=O)N[C@@H](Cc2ccc3ccccc3c2)C(=O)NC2(C(=O)N[C@@H](CCCCNC(C)=O)C(=O)N[C@@H](CC(N)=O)C(=O)N[C@@H](Cc3cccnc3)C(=O)N(C)CC(=O)NCCOCCOCC(=O)NCCOCCOCC(=O)NCC[C@H](NC(=O)CCCCCCCCCCCCCCCCC(=O)O)C(=O)O)CCOCC2)NC1=O` [Example 129, MeCO-r-Pen*-N-T-7MeW-K(Ac)-Pen*-AEF-2Nal-THP-K(Ac)-N-3Pya-Sar-PEG2PEG2gDabC18OH-COOH] (Ac-[dR][Pen]NT[Trp(7-Me)]K(Ac)[Pen][AEF][2Nal][Thp]K(Ac)N[3Pal][Sar][AEEA][AEEA]-X5; disulfide 2-7) returned an IC50 at IL-23R of 0.24 nM.

At IL-23R, `CC(=O)NCCCC[C@@H]1NC(=O)[C@H](Cc2c[nH]c3c(C)cccc23)NC(=O)[C@H]([C@@H](C)O)NC(=O)[C@H](CC(N)=O)NC(=O)[C@@H](NC(C)=O)C(C)(C)SSC(C)(C)[C@@H](C(=O)N[C@@H](Cc2ccc(OCCN)cc2)C(=O)N[C@@H](Cc2ccc3ccccc3c2)C(=O)NC2(C(=O)N[C@@H](CCCCNC(=O)COCCOCCNC(=O)COCCOCCNC(=O)CC[C@H](NC(=O)[C@H](CNC(=O)CCCCCCCCCOc3cccc(C(=O)O)c3)NC(=O)CCCCCCCCCOc3cccc(C(=O)O)c3)C(=O)O)C(=O)N[C@@H](CC(N)=O)C(=O)N[C@@H](Cc3cccnc3)C(=O)N(C)CC(N)=O)CCOCC2)NC1=O` [Example 134, MeCO-Pen*-N-T-7MeW-K(Ac)-Pen*-AEF-2Nal-THP-K(PEG2PEG2gEDAP(mXOH)2)-N-3Pya-Sar-CONH2] came in with an IC50 of 0.037 nM.

On IL-23R (IL23R reporter assay, HEK293 cells with IL-23R and STAT-inducible luciferase reporter, 10 ng/mL IL-23, 5 h, Table 5b 'IL-23 Binding Data'), “MeCO-r-Pen(3)-N15-T-7MeW-K(Ac)-Pen(3)-AEF-2Nal-THP-E-N15-3Pya-Sar-K(PEG2PEG2gEC18OH)-CONH2 [Compound 354]” showed an IC50 of 1280 nM.
